Data on 6 compounds can be found in paper PMC8217813, “Bridging Computational Vaccinology and Vaccine Development Through Systematic Identification, Characterization, and Downselection of Conserved and Variable Circumsporozoite Protein CD4 T Cell Epitopes From Diverse Plasmodium falciparum Strains” (Frontiers in Immunology, 2021).

One test has as its target T1, HLA A*0101 (Homo sapiens, UniProt P04439, A114D/A174V/A182V/D101N/D185E/E176A/E190D/L180R/Q94H/R68K/S129P/T187R/V100A/V91M/W191G).
T1 construct: Pure Protein, LLC (ran the assay)
The test is described as follows: biochemical. The format is binding.

For test [1], the system named is CD4 T cells co-cultured with autologous DCs from PBMCs. The format is cell-based, human. The settings on record: positive = Stimulation Index ≥1.5-fold above baseline, 5 µg/mL peptide.
Setting [2] is: allele A0101, cell-free competition with fluorescently labeled control peptide, fluorescence polarization at 72 hours, read-out: IC50.

Usually IC50 stands for the midpoint of a concentration-inhibition curve.

Read-outs that look alike come from different tables or passages of the source. Peptide text beside a SMILES is read from it.

In turn, `CC[C@H](C)[C@H](NC(=O)[C@H](Cc1c[nH]cn1)NC(=O)[C@H](CCCCN)NC(=O)[C@H](CC(=O)O)NC(=O)[C@H](CO)NC(=O)[C@@H]1CCCN1)C(=O)N[C@@H](CCC(=O)O)C(=O)N[C@@H](CCC(N)=O)C(=O)N[C@@H](Cc1ccc(O)cc1)C(=O)O` [Cluster 311_ICS7] (H-PSDKHIEQY-OH) displayed an IC50 at HLA A*0101 of 2 µM.

For the compound `CC[C@H](C)[C@H](NC(=O)[C@H](CO)NC(=O)[C@H](CO)NC(=O)[C@@H](N)CC(N)=O)C(=O)NCC(=O)N[C@@H](CC(C)C)C(=O)N[C@H](C(=O)N[C@@H](CCSC)C(=O)N[C@H](C(=O)O)C(C)C)[C@@H](C)CC` [Cluster 382_3D7] (H-NSSIGLIMV-OH), the 50% inhibitory concentration (IC50) on HLA A*0101 (setting [2]) is 215 µM.

As for NVDPNANPNV [Cluster 109_3D7], the “IC50 (nM)” value on HLA A*0101 (allele A0101, cell-free competition with fluorescently labeled control peptide, fluorescence polarization at 72 hours) was “Non-Binder”.

Consider `CC(C)[C@H](NC(=O)[C@@H](N)CC(N)=O)C(=O)N[C@@H](CC(=O)O)C(=O)N[C@@H](CCC(=O)O)C(=O)N[C@@H](CC(N)=O)C(=O)N[C@@H](C)C(=O)N[C@@H](CC(N)=O)C(=O)N[C@@H](C)C(=O)N[C@@H](CC(N)=O)C(=O)N[C@@H](CC(N)=O)C(=O)O` [Cluster 292_CVX337] (H-NVDENANANN-OH), for which the IC50 on HLA A*0101 (setting [2]) came out at 667 µM.

For `CC[C@H](C)[C@H](NC(=O)[C@H](Cc1c[nH]cn1)NC(=O)[C@H](CCCCN)NC(=O)[C@H](CC(=O)O)NC(=O)[C@H](CO)NC(=O)[C@@H]1CCCN1)C(=O)N[C@H](C(=O)N[C@@H](CCC(=O)O)C(=O)N[C@@H](Cc1ccc(O)cc1)C(=O)O)[C@@H](C)O` [Cluster 311_ICS2] (H-PSDKHITEY-OH), on HLA A*0101, 2.67 µM corresponded to half-maximal inhibition (IC50).

Take IKKYLKKIKNSISTEWSPCS [ICS6]: in test [1] (DR1 donors N=5, ICCS after 14-day co-culture), the “Percentage of donors demonstrating IFN-γ responses, DR1” value was 20%. In test [1] (DR1 donors N=5, ICCS), the “Percentage of donors demonstrating IL-2 responses, DR1” value is listed as 20%; the “Percentage of donors demonstrating IL-4 responses, DR1” value stood at 0%; the “Percentage of donors demonstrating IL-10 responses, DR1” value is given as 20%; the “Percentage of donors demonstrating TNF-α responses, DR1” value turned out to be 20%. The “Percentage of donors demonstrating IFN-γ responses, DR3” value in test [1] (DR3 donors N=6, ICCS after 14-day co-culture) came to 50%. Besides, in test [1] (DR3 donors N=6, ICCS), the “Percentage of donors demonstrating IL-2 responses, DR3” value turned out to be 33%; the “Percentage of donors demonstrating IL-4 responses, DR3” value turned out to be 0%; the “Percentage of donors demonstrating IL-10 responses, DR3” value is recorded as 17%; the “Percentage of donors demonstrating TNF-α responses, DR3” value is reported as 33%. The “Percentage of donors demonstrating IFN-γ responses, DR4” value in test [1] (DR4 donors N=10, ICCS after 14-day co-culture) amounted to 40%. Also, in test [1] (DR4 donors N=10, ICCS), the “Percentage of donors demonstrating IL-2 responses, DR4” value is recorded as 30%; the “Percentage of donors demonstrating IL-4 responses, DR4” value came to 0%; the “Percentage of donors demonstrating IL-10 responses, DR4” value is recorded as 30%; the “Percentage of donors demonstrating TNF-α responses, DR4” value worked out at 30%. The “Percentage of donors demonstrating IFN-γ responses, DR7” value in test [1] (DR7 donors N=4, ICCS after 14-day co-culture) was found to be 50%. In test [1] (DR7 donors N=4, ICCS), the “Percentage of donors demonstrating IL-2 responses, DR7” value was determined as 50%; the “Percentage of donors demonstrating IL-4 responses, DR7” value was 0%; the “Percentage of donors demonstrating IL-10 responses, DR7” value worked out at 50%; the “Percentage of donors demonstrating TNF-α responses, DR7” value was determined as 25%. In test [1] (DR8 donors N=4, ICCS after 14-day co-culture), the “Percentage of donors demonstrating IFN-γ responses, DR8” value stood at 25%. Besides, in test [1] (DR8 donors N=4, ICCS), the “Percentage of donors demonstrating IL-2 responses, DR8” value was 0%; the “Percentage of donors demonstrating IL-4 responses, DR8” value turned out to be 0%; the “Percentage of donors demonstrating IL-10 responses, DR8” value came to 0%; the “Percentage of donors demonstrating TNF-α responses, DR8” value is 0%. Also, in test [1] (DR9 donors N=4, ICCS after 14-day co-culture), the “Percentage of donors demonstrating IFN-γ responses, DR9” value amounted to 50%. Besides, in test [1] (DR9 donors N=4, ICCS), the “Percentage of donors demonstrating IL-2 responses, DR9” value is recorded as 50%; the “Percentage of donors demonstrating IL-4 responses, DR9” value is 25%; the “Percentage of donors demonstrating IL-10 responses, DR9” value was found to be 25%; the “Percentage of donors demonstrating TNF-α responses, DR9” value is recorded as 50%. Also, the “Percentage of donors demonstrating IFN-γ responses, DR11” value in test [1] (DR11 donors N=4, ICCS after 14-day co-culture) came to 50%. In test [1] (DR11 donors N=4, ICCS), the “Percentage of donors demonstrating IL-2 responses, DR11” value was 25%; the “Percentage of donors demonstrating IL-4 responses, DR11” value stood at 0%; the “Percentage of donors demonstrating IL-10 responses, DR11” value was determined as 25%; the “Percentage of donors demonstrating TNF-α responses, DR11” value is given as 50%. In addition, the “Percentage of donors demonstrating IFN-γ responses, DR13” value in test [1] (DR13 donors N=7, ICCS after 14-day co-culture) is given as 43%. In test [1] (DR13 donors N=7, ICCS), the “Percentage of donors demonstrating IL-2 responses, DR13” value is 29%; the “Percentage of donors demonstrating IL-4 responses, DR13” value amounted to 0%; the “Percentage of donors demonstrating IL-10 responses, DR13” value came out at 0%; the “Percentage of donors demonstrating TNF-α responses, DR13” value came to 43%. Besides, the “Percentage of donors demonstrating IFN-γ responses, DR15” value in test [1] (DR15 donors N=7, ICCS after 14-day co-culture) is listed as 43%. Besides, in test [1] (DR15 donors N=7, ICCS), the “Percentage of donors demonstrating IL-2 responses, DR15” value is listed as 29%; the “Percentage of donors demonstrating IL-4 responses, DR15” value is 14%; the “Percentage of donors demonstrating IL-10 responses, DR15” value amounted to 43%; the “Percentage of donors demonstrating TNF-α responses, DR15” value is 43%.
